Measured values taken from PMC8009514 (Langmuir, 2020).
Where two headings read alike, the source gives them in different places. Ends that are not written are not given here.

How the values were obtained:
[1] = Monomer solubility (cs) from scattered light intensity on dilution; assay type: physicochemical
Procedure: Dynamic light scattering (DLS) experiments were performed with an ALV/DLS/SLS-5022F goniometer system with an ALV-7004 correlator at a scattering angle of 90°. The laser source was a 22 mW He–Ne laser with a wavelength of 632.8 nm. The samples were placed in 5 mm glass tubes, kept at 25 °C, and the intensity autocorrelation functions were collected over runs of 300 s, using two avalanche photodiode detectors operating in the pseudo-cross-correlational mode. Light scattering experiments were also performed using a modulated three-dimensional light scattering instrument (LS Instruments GmbH, Switzerland), implementing a laser with a wavelength of 660 nm and two avalanche photodiodes. […] The experimental intensity correlation functions g^(2)(τ) were converted to C(τ) = (g^(2)(τ) – 1)/β = |g^(1)(τ)|^2,[35] where β is an instrumental constant, close to unity, and g^(1)(τ) is the correlation function of the electric field, which was fitted using the cumulant expansion to obtain an average diffusion coefficient.[36] Fitting was performed with an in-house MATLAB script.
Aggregates begin to form above a particular concentration, which can be interpreted as the monomer solubility, cs. This concentration can be measured, for example, by following the scattered light intensity as a function of dilution of a sample with an initial concentration c > cs.[13] For this purpose, solutions of the peptides at 1 wt % were gradually diluted in order to determine at which concentration the light scattering signal reached the solvent level, which is a good indication of the monomer solubility. […] For A8K, the monomer solubilities of about 10 μM were obtained, which means approximately 2 orders of magnitude smaller compared to that in water.

[2] = Visual observation of gel-like (arrested) state; assay type: physicochemical
Procedure: Previous SAXS experiments on the peptides in water[13],[17] have shown that this concentration could be considered dilute enough not to manifest any effects of interaggregate interactions in the scattering profiles. The first observation made was that the peptide samples in MeOH and DMF were more viscous than the corresponding samples in water prepared at similar concentrations and presented highly viscous (gel-like) states after 5-12 h from solubilization (Figure 2).

[3] = cited from earlier work
Excerpt: Aggregates begin to form above a particular concentration, which can be interpreted as the monomer solubility, cs. This concentration can be measured, for example, by following the scattered light intensity as a function of dilution of a sample with an initial concentration c > cs.[13] For this purpose, solutions of the peptides at 1 wt % were gradually diluted in order to determine at which concentration the light scattering signal reached the solvent level, which is a good indication of the monomer solubility. With this method, monomer solubilities of 2 mM and 7 μM in water were determined f ...

[4] = cited from earlier work; remark: listed apart in the source
Excerpt: Table 1 Some Physicochemical Properties of the Three Solvents in Which the Self-Assembly of the Peptides Was Investigated | column: H2O; MeOH; DMF

[5] = target: the molecule itself; assay: light scattering intensity on dilution; peptide in N,N-dimethylformamide, 1 wt % solution gradually diluted, mean count rate at 90°; concentration at which the signal reaches the solvent level is taken as monomer solubility
[6] = light scattering intensity on dilution; peptide in methanol, 1 wt % solution gradually diluted, mean count rate at 90°; concentration at which the signal reaches the solvent level is taken as monomer solubility; conditions: other: light scattering intensity on dilution
[7] = light scattering intensity on dilution; peptide in N,N-dimethylformamide, 1 wt % solution gradually diluted, mean count rate at 90°; concentration at which the signal reaches the solvent level is taken as monomer solubility; conditions: other: light scattering intensity on dilution

Q: Which results are given for `C[C@H](N)C(=O)N[C@@H](C)C(=O)N[C@@H](C)C(=O)N[C@@H](C)C(=O)N[C@@H](C)C(=O)N[C@@H](C)C(=O)N[C@@H](C)C(=O)N[C@@H](C)C(=O)N[C@@H](C)C(=O)N[C@@H](C)C(=O)N[C@@H](CCCCN)C(=O)O` [A10K]?
A: monomer solubility cs ([1]; in DMF, 1 wt % TFA-salt solution gradually diluted until light scattering signal reached solvent level, mean count rate at 90°, average of three runs of 100 s): approximately the same solubilities; monomer solubility cs ([1]; in MeOH, 1 wt % TFA-salt solution gradually diluted until light scattering signal reached solvent level, mean count rate at 90°, average of three runs of 100 s): approximately the same solubilities; time from solubilization to highly viscous (gel-like) state ([2]; samples around 1 wt % in MeOH and DMF): 5 to 12 h; monomer solubility cs ([3]; in water, scattered light intensity on dilution of a sample with c > cs): 7 µM

Q: Which CMC of SDS at 25 °C ([4]; in DMF) does the source give for `CCCCCCCCCCCCOS(=O)(=O)[O-].[Na+]` [SDS] here?
A: 14.6 mM

Q: What about the CMC of SDS at 25 °C ([4]; in H2O) of the same molecule?
A: 7.8 mM

Q: What about the CMC of SDS at 25 °C ([4]; in MeOH) of the same molecule?
A: 6.9 mM

Q: With `CCCCCC` [hexane] as the molecule, how does the “solubility of hexane at 25 °C” value ([4]; in H2O) read?
A: 0.0124 mg/mL

Q: What about the “solubility of hexane at 25 °C” value ([4]; in MeOH) of the same molecule?
A: 604 mg/mL

Q: With AAAAAAAAK [A8K] as the molecule, how does the monomer solubility cs [1] read?
A: about 10 μM

Q: And the “time from solubilization to highly viscous (gel-like) state” value [2]?
A: 5 to 12 h

Q: What about the monomer solubility cs [3] of the same molecule?
A: 2000 µM

B1: A10K amphiphilic model peptide (peptide)
peptide: AAAAAAAAAAK
notes: unprotected N-terminus; 11 residues, 857 g/mol; Designed model peptide; The printed molecular weight (857 g/mol) fits free N- and C-termini; TFA counterions are present; also called AnK (n = 10); source: synthetic peptide; bought: CPC Scientific Inc., trifluoroacetate salt, purity >96%, used without further purification
Q: Does B1 bind [5]?
A: binds

Q: Which “monomer solubility cs (concentration above which aggregates form)” value [6] does the source give for AAAAAAAAK [A8K amphiphilic model peptide] here?
A: For A8K, the monomer solubilities of about 10 μM were obtained

Q: What about the “monomer solubility cs (concentration above which aggregates form)” value [7] of the same molecule?
A: For A8K, the monomer solubilities of about 10 μM were obtained
